The values that follow come from patent US20250382303A1, “NOVEL COMPOUND AS NADPH OXIDASE 2 INHIBITOR AND PHARMACEUTICAL COMPOSITION CONTAINING SAME” (DONGGUK UNIVERSITY INDUSTRY-ACADEMIC COOPERATION FOUNDATION, priority 2022, published 2025).

SMILES strings stand for the structures.

The target in one assay is T1, NOX2 (Homo sapiens, UniProt P04839).
T1 construct: Used for the NOX2 activity assay was human leukemia 60 cells (HL-60), which are widely, universally used to assess NOX2 activity; endogenous in cells
T1 sequence (P04839 2-570 limits assumed): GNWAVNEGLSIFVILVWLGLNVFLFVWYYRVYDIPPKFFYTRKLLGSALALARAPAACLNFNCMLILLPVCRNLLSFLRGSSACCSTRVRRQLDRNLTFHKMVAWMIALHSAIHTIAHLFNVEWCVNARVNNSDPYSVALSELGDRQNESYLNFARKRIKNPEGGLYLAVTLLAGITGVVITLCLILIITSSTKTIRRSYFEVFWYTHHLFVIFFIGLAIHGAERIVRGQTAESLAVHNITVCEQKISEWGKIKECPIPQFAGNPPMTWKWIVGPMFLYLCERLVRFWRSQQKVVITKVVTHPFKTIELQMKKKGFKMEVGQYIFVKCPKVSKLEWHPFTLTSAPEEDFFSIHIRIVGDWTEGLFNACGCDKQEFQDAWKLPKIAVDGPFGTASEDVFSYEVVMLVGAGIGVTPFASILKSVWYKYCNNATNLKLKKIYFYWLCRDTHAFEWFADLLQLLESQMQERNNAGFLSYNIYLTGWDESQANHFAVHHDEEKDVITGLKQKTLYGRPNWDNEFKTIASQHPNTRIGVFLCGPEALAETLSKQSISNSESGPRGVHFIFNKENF
T1 sequence (P13498 2-195 partner limits assumed): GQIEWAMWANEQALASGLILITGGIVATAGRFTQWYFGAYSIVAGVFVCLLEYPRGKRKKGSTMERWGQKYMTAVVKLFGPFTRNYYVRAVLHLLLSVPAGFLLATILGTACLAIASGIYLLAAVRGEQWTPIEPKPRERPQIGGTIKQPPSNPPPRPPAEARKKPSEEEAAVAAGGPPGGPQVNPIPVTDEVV
Nature of the assay: NOX2 activity assay: PMA-induced ROS in ATRA-differentiated HL-60 cells (WST-1 or Amplex Red/HRP probe). The format is cell-based. The following applies: WST-1; comment on Table 1. The method, then:
NOX activity was evaluated by measuring the reactive oxygen species (ROS) produced by NOX. The probes that were used to measure ROS were water soluble tetrazolium-1 (WST-1, superoxide-specific colorimetric probe) and Amplex Red/horseradish peroxidase (AR/HRP, hydrogen peroxide-specific fluorometric probe), and the concentration of the probes used was […]. For WST-1, the change in the absorbance at 450 nm was measured, and, for AR, the change in fluorescence signals was measured at 560 nm and 585 nm, respectively for excitation wavelength (Ex) and emission wavelength (Em). The optical signal was measured using the SpectraMax M3 microplate reader from Molecular Devices at 37° C. for 60 minutes.
Used for the NOX2 activity assay was human leukemia 60 cells (HL-60), which are widely, universally used to assess NOX2 activity. 1×10^5 cells/mL of HL-60 were treated with […] all-trans-retinoic acid (ATRA) for 4 days to induce differentiation. Differentiated HL-60 (diff. HL-60) was centrifuged at 200 g for 5 minutes and washed twice with HBSS. Differentiation was induced to reach 3×10^4 cells/well on a 96-well plate (diff). HL-60 was seeded. The test material was treated to cells and left in a 37° C. incubator for 60 minutes. As a control group, the same concentration of DMSO, which is the vehicle of the test material, was used. 200 ng/mL phorbol 12-myristate 13-acetate (PMA) was used as the NOX2 activator, and the production amount of ROS induced by PMA was measured for 60 minutes. […] diphenyleneiodonium (DPI), which is well known to inhibit NOX, was used as a positive control group to evaluate whether the NOX2 activity tester properly operates.
`CC12CC(NC(=O)N1c1cccc(C(=O)N3CCc4ccccc4C3)c1)c1cc(C(F)(F)F)ccc1O2` (stereo not drawn) [Compound 25b, 2-Methyl-3-(3-(1,2,3,4-tetrahydroisoquinoline-2-carbonyl)phenyl)-8-(trifluoromethyl)-5,6-dihydro-2H-2,6-methanobenzo[g][1,3,5]oxadiazocin-4(3H)-one]: the “NOX2 inhibitory ability, verbal rating” value is “excellent inhibitory ability”.

On to `COc1ccc2c(c1)C1CC(C)(O2)N(c2cccc(C(=O)N3CCc4ccccc4C3)c2)C(=O)N1` (stereo not drawn) [Compound 25e, 8-Methoxy-2-methyl-3-(3-(1,2,3,4-tetrahydroisoquinoline-2-carbonyl)phenyl)-5,6-dihydro-2H-2,6-methanobenzo[g][1,3,5]oxadiazocin-4(3H)-one], for which the “NOX2 inhibitory ability, verbal rating” value is on record as “excellent inhibitory ability”.

The same assay, now with this note: WST-1 probe; differentiated HL-60, 200 ng/mL PMA; read-out: Inhibitory ability (NOX2).
On to `COc1cc2c(cc1OC)CN(C(=O)c1cccc(N3C(=O)NC4CC3(C)Oc3ccccc34)c1)CC2` (racemic) [Compound 8b, 3-(3-(6,7-Dimethoxy-1,2,3,4-tetrahydroisoquinoline-2-carbonyl)phenyl)-2-methyl-5,6-dihydro-2H-2,6-methanobenzo[g][1,3,5]oxadiazocin-4(3H)-one], for which the IC50 was > 10 µM.

Consider `CC12CC(NC(=O)N1c1cccc(C(=O)NCc3ccc(C(F)(F)F)cc3)c1)c1ccccc1O2` (racemic) [Compound 8c, 3-(2-Methyl-4-oxo-5,6-dihydro-2H-2,6-methanobenzo[g][1,3,5]oxadiazocin-3(4H)-yl)-N-(4-(trifluoromethyl)benzyl)benzamide], for which the IC50 is > 10 µM.

Turning to `CC12CC(NC(=O)N1c1cccc(C(=O)NCCc3ccc(C(F)(F)F)cc3)c1)c1ccccc1O2` (racemic) [Compound 8d, 3-(2-Methyl-4-oxo-5,6-dihydro-2H-2,6-methanobenzo[g][1,3,5]oxadiazocin-3(4H)-yl)-N-(4-(trifluoromethyl)phenethyl)benzamide], the IC50 fell in the range of 1 to 10 µM.

As for `CC12CC(NC(=O)N1c1cccc(C(=O)NC3Cc4ccccc4C3)c1)c1ccccc1O2` (racemic) [Compound 8e, N-(2,3-Dihydro-1H-inden-2-yl)-3-(2-methyl-4-oxo-5,6-dihydro-2H-2,6-methanobenzo[g][1,3,5]oxadiazocin-3(4H)-yl)benzamide], the IC50 was > 10 µM.

As to `CC12CC(NC(=O)N1c1cccc(C(=O)NCc3cccnc3)c1)c1ccccc1O2` (racemic) [Compound 8f, 3-(2-Methyl-4-oxo-5,6-dihydro-2H-2,6-methanobenzo[g][1,3,5]oxadiazocin-3(4H)-yl)-N-(pyridin-3-ylmethyl)benzamide], the IC50 was > 10 µM.

On to `CC12CC(NC(=O)N1c1cccc(C(=O)NCc3ccco3)c1)c1ccccc1O2` (racemic) [Compound 8g, N-(Furan-2-ylmethyl)-3-(2-methyl-4-oxo-5,6-dihydro-2H-2,6-methanobenzo[g][1,3,5]oxadiazocin-3(4H)-yl)benzamide], for which the IC50 is > 10 µM.

On to `CC12CC(NC(=O)N1c1cccc(C(=O)NC3CC3)c1)c1ccccc1O2` (racemic) [Compound 8h, N-Cyclopropyl-3-(2-methyl-4-oxo-5,6-dihydro-2H-2,6-methanobenzo[g][1,3,5]oxadiazocin-3(4H)-yl)benzamide], for which the IC50 is > 10 µM.

Consider `CN(Cc1ccccc1)C(=O)c1cccc(N2C(=O)NC3CC2(C)Oc2ccccc23)c1` (racemic) [Compound 8i, N-Benzyl-N-methyl-3-(2-methyl-4-oxo-5,6-dihydro-2H-2,6-methanobenzo[g][1,3,5]oxadiazocin-3(4H)-yl)benzamide], for which the IC50 was > 10 µM.

As to `CC12CC(NC(=O)N1c1cccc(C(=O)O)c1)c1ccccc1O2` (stereo not drawn) [Compound 7, 3-(2-Methyl-4-oxo-5,6-dihydro-2H-2,6-methanobenzo[g][1,3,5]oxadiazocin-3(4H)-yl)benzoic acid], the IC50 is > 10 µM.

Regarding `CN1C(=O)N(c2cccc(C(=O)N3CCc4ccccc4C3)c2)C2(C)CC1c1ccccc1O2` (stereo not drawn) [Compound 9, 2,5-Dimethyl-3-(3-(1,2,3,4-tetrahydroisoquinoline-2-carbonyl)phenyl)-5,6-dihydro-2H-2,6-methanobenzo[g][1,3,5]oxadiazocin-4(3H)-one], the IC50 is > 10 µM.

As to `C[C@@]12C[C@@H](NC(=O)N1c1cccc(C(=O)N3CCc4ccccc4C3)c1)c1ccccc1O2` [Compound 10a, (2R,6R)-2-Methyl-3-(3-(1,2,3,4-tetrahydroisoquinoline-2-carbonyl)phenyl)-5,6-dihydro-2H-2,6-methanobenzo[g][1,3,5]oxadiazocin-4(3H)-one], the IC50 was > 10 µM.

Turning to `C[C@@]12C[C@@H](NC(=O)N1c1cccc(C(=O)NCc3ccc(Br)cc3)c1)c1ccccc1O2` [Compound 10b, N-(4-Bromobenzyl)-3-((2R,6R)-2-methyl-4-oxo-5,6-dihydro-2H-2,6-methanobenzo[g][1,3,5]oxadiazocin-3(4H)-yl)benzamide], the IC50 was > 10 µM.

As to `C[C@]12C[C@H](NC(=O)N1c1cccc(C(=O)N3CCc4ccccc4C3)c1)c1ccccc1O2` [Compound 10c, (2S,6S)-2-Methyl-3-(3-(1,2,3,4-tetrahydroisoquinoline-2-carbonyl)phenyl)-5,6-dihydro-2H-2,6-methanobenzo[g][1,3,5]oxadiazocin-4(3H)-one], the IC50 is 1 to 10 µM.

On to `C[C@]12C[C@H](NC(=O)N1c1cccc(C(=O)NCc3cc(Br)cc(Br)c3)c1)c1ccccc1O2` [Compound 10d, N-(3,5-Dibromobenzyl)-3-((2S,6S)-2-methyl-4-oxo-5,6-dihydro-2H-2,6-methanobenzo[g][1,3,5]oxadiazocin-3(4H)-yl)benzamide], for which the IC50 is > 10 µM.

Regarding `CC12CC(NC(=O)N1c1cccc(-c3cccc(C#N)c3)c1)c1ccccc1O2` (stereo not drawn) [Compound 15a, 3′-(2-Methyl-4-oxo-5,6-dihydro-2H-2,6-methanobenzo[g][1,3,5]oxadiazocin-3(4H)-yl)-[1,1′-biphenyl]-3-carbonitrile], the IC50 was > 10 µM.

As for `CC12CC(NC(=O)N1c1cccc(-c3ccco3)c1)c1ccccc1O2` (stereo not drawn) [Compound 15b, 3-(3-(Furan-2-yl)phenyl)-2-methyl-5,6-dihydro-2H-2,6-methanobenzo[g][1,3,5]oxadiazocin-4(3H)-one], the IC50 was > 10 µM.

Regarding `CN1C(=O)N(c2cccc(-c3ccco3)c2)C2(C)CC1c1ccccc1O2` (stereo not drawn) [Compound 16, 3-(3-(Furan-2-yl)phenyl)-2,5-dimethyl-5,6-dihydro-2H-2,6-methanobenzo[g][1,3,5]oxadiazocin-4(3H)-one], the IC50 is > 10 µM.

For `CC12CC(NC(=O)N1c1cccc(CNc3cccc(C(F)(F)F)c3)c1)c1ccccc1O2` (stereo not drawn) [Compound 19, 2-methyl-3-(3-(((3-(trifluoromethyl)phenyl)amino)methyl)phenyl)-5,6-dihydro-2H-2,6-methanobenzo[g][1,3,5]oxadiazocin-4(3H)-one], the IC50 was > 10 µM.

In the case of `CC12CC(NC(=O)N1c1cccc(C(=O)N3CCc4ccccc4C3)c1)c1cc(Br)ccc1O2` (stereo not drawn) [Compound 25a, 8-Bromo-2-methyl-3-(3-(1,2,3,4-tetrahydroisoquinoline-2-carbonyl)phenyl)-5,6-dihydro-2H-2,6-methanobenzo[g][1,3,5]oxadiazocin-4(3H)-one], the IC50 was > 10 µM.

For `CC12CC(NC(=O)N1c1cccc(C(=O)N3CCc4ccccc4C3)c1)c1cc(C(F)(F)F)ccc1O2` (stereo not drawn) [Compound 25b, 2-Methyl-3-(3-(1,2,3,4-tetrahydroisoquinoline-2-carbonyl)phenyl)-8-(trifluoromethyl)-5,6-dihydro-2H-2,6-methanobenzo[g][1,3,5]oxadiazocin-4(3H)-one], the IC50 is > 10 µM.

Take `CC12CC(NC(=O)N1c1cccc(C(=O)N3CCc4ccccc4C3)c1)c1cc(Cl)ccc1O2` (stereo not drawn) [Compound 25c, 8-Chloro-2-methyl-3-(3-(1,2,3,4-tetrahydroisoquinoline-2-carbonyl)phenyl)-5,6-dihydro-2H-2,6-methanobenzo[g][1,3,5]oxadiazocin-4(3H)-one]: the IC50 lay within 1 to 10 µM.

As for `CC12CC(NC(=O)N1c1cccc(C(=O)N3CCc4ccccc4C3)c1)c1cc(F)ccc1O2` (stereo not drawn) [Compound 25d, 8-Fluoro-2-methyl-3-(3-(1,2,3,4-tetrahydroisoquinoline-2-carbonyl)phenyl)-5,6-dihydro-2H-2,6-methanobenzo[g][1,3,5]oxadiazocin-4(3H)-one], the IC50 was in the range of 1 to 10 µM.
